Measured values published in article PMC6838762 (Biophysical Journal, 2019).

Biological target: T1, FeuA (Bacillus subtilis, UniProt P40409, Q131C)
T1 sequence (P40409 21-317 Q131C): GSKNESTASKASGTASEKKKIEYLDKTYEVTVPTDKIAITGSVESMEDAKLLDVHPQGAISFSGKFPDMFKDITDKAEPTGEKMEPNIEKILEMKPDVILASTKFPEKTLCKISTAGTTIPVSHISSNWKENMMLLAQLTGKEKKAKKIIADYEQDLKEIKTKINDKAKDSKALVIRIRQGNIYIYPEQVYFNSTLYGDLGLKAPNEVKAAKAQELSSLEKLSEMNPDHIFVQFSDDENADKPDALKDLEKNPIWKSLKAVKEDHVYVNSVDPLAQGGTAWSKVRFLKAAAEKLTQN
Assay type: binding

Q: For ferri-bacillibactin [FeBB], which Kd is on record?
A: Its Kd is 20 ± 3 nM.
